Source: patent publication US11351218B2, “Composition for preventing or treating glioblastoma comprising Platycodon grandiflorum A. De Candolle, Scutellaria baicalensis, Phellodendron amurense Ruprecht or Rubus coreanus” (University-Industry Cooperation Group of Kyung Hee …, priority 2019, dated 2022)

Assays:
LC3B and SQSTM1/p62 = assay: Immunoblot of autophagy-related proteins (LC3B, SQSTM1/p62) in U373MG cells; type: cell-based, human; conditions: 50 μM pre-incubation 30 minutes, then PD 10 μM 24 hours
Description: The effects of 26 kinds of herbal medicines, which influence the expression of autophagy-related proteins (LC3B and SQSTM1/p62) in total cell lysates from U87MG and U373MG cells, […] GAPDH was used as a loading control.
The human glioma cell lines, U87MG and U373MG, were cultured respectively in RPMI-1640 (Welgene) and DMEM (Welgene, Daegu, Korea) supplemented with 10% fetal bovine serum (FBS, JR Scientific) and 1% antibiotics (Ab, Welgene). All cultures were maintained at 37° C. in a humidified incubator containing 5% CO2.
(§1) Cells treated with the concentrations and materials described in FIGS. 1-3B, 7, 8, 10, 13, 16, 18, and 20 were lysed in buffer containing 20 mM Tris-HCl (pH 7.5), 150 mM NaCl, 1 mM EDTA, 1 mM Na2EDTA, 1 mM EGTA, 1% NP-40, 1% sodium deoxycholate, 1 mM Na3VO4, 1 mM MPI, 1 mM PMSF, and PI cocktails for 15 to 20 minutes on ice. Cell lysates were separated by SDS-PAGE and transferred to nitrocellulose membranes. […] The protein bands were detected with ECL western Blotting Substrate (Thermo Fisher Scientific, Waltham, Mass., USA).
To discover novel autophagy inhibitors, 26 herbal medicines were screened by western blot analysis. […] Therefore, the effect of each herbal medicine on the change in the p62 level was evaluated, given that a rise in the amount of p62 is related to the inhibition of autophaic flux.

p-ERK = assay: Immunoblot of ERK phosphorylation, U373MG cells; type: cell-based, human; conditions: 50 μM pre-incubation 30 minutes, then PD 10 μM 24 hours
Description: FIGS. 10A to 10D show the results that PD-mediated autophagy inhibition is independent of mTOR and MAPK signaling pathways. FIGS. 10A to 10C show the results in which cells were treated with PD (0 μM, 0.5 μM, 1 μM, 5 μM, and 10 μM) for 24 hours. The immunoblot analyses for p-ULK1 (Ser757), ULK1, p-S6K (Thr389), p-AKT (Ser473), ERK2, P-ERK, p-JNK1, Beclin, and ATG7 were performed using lysates from GBMs. […] Total protein extracts were analyzed by immunoblot analyses for p-ERK, LC3B, and SQSTM1. GAPDH was used as an internal control.
as §1
Previous studies have shown that PD enhances autophagy via mTOR/MAPK pathway. […] It is known that mTORC1 activation, measured by S6K phosphorylation, inhibits autophagy initiation by phosphorylating the ULK1 (Ser 757). […]

With `COc1cccc(-c2cc(=O)c3ccccc3o2)c1N` [PD98095, reference compound] the “levels of LC3B-II and p62” value (LC3B and SQSTM1/p62) was “did not alter” and the “phosphorylation of ERK” value (p-ERK) was “effectively inhibited”.
